Values quoted from earlier work in US5093322A, “Tick-derived amblyommin and method of antithrombin therapy” (Hoechst Aktiengesellschaft, priority 1988, dated 1992).

Experiments:
[1] = in vivo

For hirudin, the “thrombin inhibition, specificity” value (thrombin) is given as “highly specific thrombin inhibitor” and the half-life [1] is given as “relatively short half-life”.
